Laboratory results published in PMC4106133 (Journal of medicinal chemistry, 2013).

How the values were obtained:
α4β2 nAChR [1] = target: T1, α4β2 nAChR (Rattus norvegicus, UniProt P09483+P12390); assay: nAChR functional assay, membrane potential change; format: cell-based
α3β4 nAChR = α3β4 nAChR (Rattus norvegicus, UniProt P04757+P12392); assay: nAChR functional assay, membrane potential change; format: cell-based
α3β4α5 nAChR = assay: binding affinity against α3β4α5 nAChR
α4β2 nAChR [2] = target: T1, α4β2 nAChR; assay: [3H]epibatidine binding to α4β2 nAChR in cell membranes; settings: binding selectivity for α4β2 over α3β4

T1 sequence (P09483 31-630): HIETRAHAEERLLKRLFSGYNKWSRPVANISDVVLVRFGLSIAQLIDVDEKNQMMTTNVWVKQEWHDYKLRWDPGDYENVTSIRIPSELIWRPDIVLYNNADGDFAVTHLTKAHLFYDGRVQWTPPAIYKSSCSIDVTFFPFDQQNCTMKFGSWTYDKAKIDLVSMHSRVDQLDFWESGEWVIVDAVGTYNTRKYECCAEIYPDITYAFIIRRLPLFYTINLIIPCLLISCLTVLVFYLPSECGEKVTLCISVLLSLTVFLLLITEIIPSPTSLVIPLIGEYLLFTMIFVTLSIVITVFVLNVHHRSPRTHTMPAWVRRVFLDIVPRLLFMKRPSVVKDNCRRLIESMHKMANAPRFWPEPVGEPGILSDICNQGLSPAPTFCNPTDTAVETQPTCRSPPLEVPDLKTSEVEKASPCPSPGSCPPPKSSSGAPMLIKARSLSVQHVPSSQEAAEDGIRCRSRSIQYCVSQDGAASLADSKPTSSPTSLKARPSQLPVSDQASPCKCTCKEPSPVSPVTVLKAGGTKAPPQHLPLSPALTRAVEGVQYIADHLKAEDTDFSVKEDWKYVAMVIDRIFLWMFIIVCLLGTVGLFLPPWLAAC
T1 sequence (P12390 25-500): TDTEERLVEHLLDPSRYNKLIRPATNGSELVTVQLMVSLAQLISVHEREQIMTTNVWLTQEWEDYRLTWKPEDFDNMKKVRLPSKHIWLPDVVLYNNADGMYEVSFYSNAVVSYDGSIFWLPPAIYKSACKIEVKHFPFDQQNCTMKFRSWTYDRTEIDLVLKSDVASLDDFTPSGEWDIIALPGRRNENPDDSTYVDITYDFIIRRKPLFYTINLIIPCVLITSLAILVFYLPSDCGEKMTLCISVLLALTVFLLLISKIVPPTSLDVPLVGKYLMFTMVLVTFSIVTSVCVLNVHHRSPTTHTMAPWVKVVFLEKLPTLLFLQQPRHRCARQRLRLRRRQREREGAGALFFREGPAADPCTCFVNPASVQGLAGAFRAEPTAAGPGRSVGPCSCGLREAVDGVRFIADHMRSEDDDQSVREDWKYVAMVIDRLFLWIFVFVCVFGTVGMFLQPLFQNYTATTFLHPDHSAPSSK
Sequence of α3β4 nAChR (P04757 26-499): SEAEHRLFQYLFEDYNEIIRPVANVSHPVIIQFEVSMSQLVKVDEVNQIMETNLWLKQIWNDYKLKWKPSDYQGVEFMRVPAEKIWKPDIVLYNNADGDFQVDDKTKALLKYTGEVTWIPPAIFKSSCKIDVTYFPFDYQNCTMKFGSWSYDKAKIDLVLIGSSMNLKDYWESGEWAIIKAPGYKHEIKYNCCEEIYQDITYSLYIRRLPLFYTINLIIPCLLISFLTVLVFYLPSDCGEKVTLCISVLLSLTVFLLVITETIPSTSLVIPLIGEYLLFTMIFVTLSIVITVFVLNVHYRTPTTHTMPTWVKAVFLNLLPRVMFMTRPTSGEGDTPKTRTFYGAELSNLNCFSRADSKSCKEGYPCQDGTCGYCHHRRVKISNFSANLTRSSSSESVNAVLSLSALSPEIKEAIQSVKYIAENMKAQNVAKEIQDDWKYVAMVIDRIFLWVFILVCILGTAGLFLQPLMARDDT
Sequence of α3β4 nAChR (P12392 21-495): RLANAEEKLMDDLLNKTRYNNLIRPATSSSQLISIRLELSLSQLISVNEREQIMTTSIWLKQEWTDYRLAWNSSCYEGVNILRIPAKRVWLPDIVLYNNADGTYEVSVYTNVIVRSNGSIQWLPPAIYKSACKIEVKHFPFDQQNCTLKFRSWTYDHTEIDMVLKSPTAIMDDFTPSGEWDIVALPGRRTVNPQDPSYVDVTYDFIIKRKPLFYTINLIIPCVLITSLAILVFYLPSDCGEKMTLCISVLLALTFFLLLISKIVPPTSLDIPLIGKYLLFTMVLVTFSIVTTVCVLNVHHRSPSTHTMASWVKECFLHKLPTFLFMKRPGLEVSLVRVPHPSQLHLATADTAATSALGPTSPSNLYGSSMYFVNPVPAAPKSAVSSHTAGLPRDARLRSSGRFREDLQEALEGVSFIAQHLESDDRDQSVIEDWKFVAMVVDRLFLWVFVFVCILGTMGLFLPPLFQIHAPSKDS

SMILES | Emax (α4β2 nAChR [1]; HEK293, read-out: nicotine maximum stimulation) | IC50 (α3β4 nAChR) | agonist activity at α3β4 nAChR (α3β4 nAChR; membrane potential change, HEK cells) | binding affinity Kd/Ki against α3β4α5 nAChR (α3β4α5 nAChR) | agonist activity at α4β2 nAChR (α4β2 nAChR [1]; membrane potential change, HEK cells, up to 10 µM) | mode of inhibition of nicotine's activity (α4β2 nAChR [1]; nicotine dose response curves with various concentrations of 301) | inverse agonist activity (α4β2 nAChR [1]; α4β2-containing cells, very high concentrations) | selectivity (fold) (α3β4 Ki/α4β2 Ki) (α4β2 nAChR [2])
CN1CCC[C@H]1c1cccnc1 [nicotine, reference compound] | 100% |  |  |  |  |  |  | 
CC(C)(C)C1CCC(CN2C(=N)N(CCCC[C@H]3CNC(=N)N3CCc3cccnc3)C[C@H]2Cc2ccccc2)CC1 (stereo partly drawn) [Compound 301, (R)-4-Benzyl-3-((4-tert-butylcyclohexyl)methyl)-1-(4-((S)-2-imino-3-(2-(pyridin-3-yl)ethyl)imidazolidin-4-yl)butyl)imidazolidin-2-imine] |  | > 10 µM | no agonist activity | 9.062 µM | no agonist activity | noncompetitive | potential inverse agonist activity | ~500 fold
